Measurements from ChEMBL document CHEMBL1155657, “Triterpene glycosides from the Far-Eastern sea cucumber Pentamera calcigera. 1. Monosulfated glycosides and cytotoxicity of their unsulfated derivatives” (J Nat Prod, 2000).

Key:
Assay type in all cases: functional, cell-based
[1] = Cytotoxicity against human MEL-28 cells; details: SK-MEL-28
A549 = assay: Cytotoxicity against human A549 cells
HT-29 = assay: Cytotoxicity against human HT29 cells
P388 = assay: Cytotoxicity against mouse P388 cells

Measured: IC50

C=C(C)[C@H]1[C@@H]2C[C@@]3(C)C4=CC[C@H]5C(C)(C)[C@@H](O[C@@H]6OC[C@@H](O)[C@H](O)[C@H]6O[C@@H]6O[C@H](C)[C@@H](O[C@@H]7O[C@H](CO)[C@@H](O)[C@H](O[C@@H]8OC[C@@H](O)[C@H](OC)[C@H]8O)[C@H]7O)[C@H](O)[C@H]6O[C@@H]6O[C@H](CO)[C@@H](O)[C@H](O)[C@H]6O)CC[C@]5(C)[C@@H]4CC[C@]13C(=O)O2
5 µg/mL: [1] | A549 | HT-29 | P388

C=C(C)[C@H]1[C@@H]2C[C@@]3(C)C4=CC[C@H]5C(C)(C)[C@@H](O[C@@H]6OC[C@@H](O)[C@H](O)[C@H]6O[C@@H]6O[C@H](C)[C@@H](O[C@@H]7O[C@H](CO)[C@@H](O)[C@H](O[C@@H]8OC[C@@H](O)[C@H](OC)[C@H]8O)[C@H]7O)[C@H](O)[C@H]6O[C@@H]6O[C@H](C)[C@@H](O)[C@H](O)[C@H]6O)CC[C@]5(C)[C@@H]4CC[C@]13C(=O)O2
5 µg/mL: [1] | A549 | HT-29 | P388
